pIC50: −log10 of the molar value. Where two headings read alike, the source gives them in different places.
Key:
[1] = tested on: HCC1806 cells; test: CTG assay of compound inhibition on cell viability (HCC1806 cells); type: cell-based; conditions: Homo sapiens, HCC1806, 144 h, read-out: IC50 in HCC1806 Cells
Protocol: CellTiter-Glo (CTG) is a rapid cell viability test method based on ATP detection. […] Adenosine triphosphate (ATP) participates in various enzymatic reactions in organisms and is an indicator of living cell metabolism. Its content directly reflects the number of living cells and cell status. During the experiment, equal volume of CTG reagent is added to the cultured cells to measure the luminescence value. The chemiluminescent signal value is proportional to the amount of ATP, thus reflecting the number of viable cells. Therefore, cell viability can be obtained by detecting the ATP content. Compounds that affect cell viability will inhibit cell viability in a concentration-dependent manner, allowing a curve to be fitted to obtain the IC50 value.
The experimental procedure is as follows: • 11. Place the cell suspension in a 15 mL centrifuge tube, centrifuge at 1000 rpm for 5 min at room temperature, discard the supernatant, and collect the cell pellet. • 12. Resuspend the cell pellet with preheated complete cell culture medium (RPMI1640+10%FBS+1%PS), and use a Countess® automated cell counter to detect cell viability and density. The cell viability must be above 90%. • 13. […] Transfer the compound solution to a 96-well plate seeded with cells (final concentration of DMSO 0.1%), and place in a cell incubator at 37°C, 5% CO2 for 6 days. • 15. […] Protect from light during the whole process. Perform optical signal readings using a SpectraMax i3x reader. • 16. Data analysis: Remaining activity (%) = 100% * (1 - ((LumDMSO - Lummedium) - Lumsample) / (LumDMSO - LumPBS/medium)). Use GraphPad Prism 9.0 software to draw an S-shaped dose-survival rate curve and calculate the IC50 value using a nonlinear regression model.

[2] = molecular target: T1, AURKA (Homo sapiens, UniProt O14965); type: cell-based
T1 construct: endogenous in cells; host or cells: Jurkat cells
T1 sequence (O14965 1-403): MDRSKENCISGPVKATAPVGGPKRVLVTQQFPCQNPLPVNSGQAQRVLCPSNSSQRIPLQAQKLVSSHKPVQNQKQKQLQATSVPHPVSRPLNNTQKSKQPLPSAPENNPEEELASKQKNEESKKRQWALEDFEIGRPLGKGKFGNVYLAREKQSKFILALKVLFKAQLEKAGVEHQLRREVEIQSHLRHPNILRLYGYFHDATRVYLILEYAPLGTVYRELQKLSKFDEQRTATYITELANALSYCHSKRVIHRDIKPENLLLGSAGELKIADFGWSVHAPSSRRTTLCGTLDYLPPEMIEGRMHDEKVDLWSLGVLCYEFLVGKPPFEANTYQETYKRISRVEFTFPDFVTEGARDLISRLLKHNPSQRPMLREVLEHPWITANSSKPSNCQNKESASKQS
Method in brief: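 Jurkat cells seeded at 1×10^6 cells/500 µL and treated with compound; lysates run on SDS-PAGE, blotted to nitrocellulose and probed overnight at 4°C for AURKA. Chemiluminescent or fluorescent band intensity fitted to a curve to give DC50 for protein degradation.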

[3] = 100 nM compound, Jurkat cells, 24 h, Table 1
[4] = 1 µM compound, Jurkat cells, 24 h, Table 1

Structure (SMILES) | pIC50 [1] | Percentage of AURKA Degradation Induced by 100 nM Compound in Jurkat Cells [2, 3] | Percentage of AURKA Degradation Induced by 1 µM Compound in Jurkat Cells [2, 4] | Percentage of AURKA Degradation Induced by 100 nM Compound in Jurkat Cells [2] | Percentage of AURKA Degradation Induced by 1 µM Compound in Jurkat Cells [2]
COc1cc(Nc2ncc3c(n2)-c2ccc(Cl)cc2C(c2c(F)cccc2OC)=NC3)ccc1C(=O)NC1CC2(C1)CN(c1ccc(N3CCC(=O)NC3=O)cc1)C2 [Compound A58] | > 6.00 | ++ (30% < Degradation ≤ 70%) | ++ (30% < Degradation ≤ 70%) |  | 
O=C1CCN(c2ccc(N3CC4(CC(NC(=O)c5ccc(Nc6ncc7c(n6)-c6ccc(Cl)cc6C(c6c(F)cccc6F)=NC7)cc5)C4)C3)cc2)C(=O)N1 [Compound A59] | > 6.00 | ++ (30% < Degradation ≤ 70%) | +++ (Degradation > 70%) |  | 
O=C1CCN(c2ccc(N3CC4(CCC(NC(=O)c5ccc(Nc6ncc7c(n6)-c6ccc(Cl)cc6C(c6c(F)cccc6F)=NC7)cc5)CC4)C3)nc2)C(=O)N1 [Compound A61] | > 6.00 | +++ (Degradation > 70%) | +++ (Degradation > 70%) |  | 
COc1cccc(F)c1C1=NCc2cnc(Nc3ccc(C(=O)NC4CC5(C4)CN(c4cccc(N6CCC(=O)NC6=O)c4)C5)cc3)nc2-c2ccc(Cl)cc21 [Compound A63] | > 6.00 | ++ (30% < Degradation ≤ 70%) | ++ (30% < Degradation ≤ 70%) |  | 
O=C1CCN(c2ccc(N3CCN(CCNC(=O)c4ccc(Nc5ncc6c(n5)-c5ccc(Cl)cc5C(c5c(F)cccc5F)=NC6)cc4)CC3=O)nc2)C(=O)N1 [Compound A64] | > 6.00 |  |  | +++ (key: +: Degradation ≤ 30%; ++: 30% < Degradation ≤ 70%; +++: Degradation > 70%) | ++ (key: +: Degradation ≤ 30%; ++: 30% < Degradation ≤ 70%; +++: Degradation > 70%)
COc1cccc(F)c1C1=NCc2cnc(Nc3ccc(C(=O)NCCN4CCN(c5ccc(N6CCC(=O)NC6=O)cn5)C(=O)C4)cc3)nc2-c2ccc(Cl)cc21 [Compound A65] | > 6.00 | +++ (Degradation > 70%) | ++ (30% < Degradation ≤ 70%) |  | 
O=C1CCN(c2ccc(N3CCN(CCNC(=O)c4ccc(Nc5ncc6c(n5)-c5ccc(Cl)cc5C(c5c(F)cccc5F)=NC6)cc4)CC34CC4)nc2)C(=O)N1 [Compound A66] | > 6.00 | + (Degradation ≤ 30%) | + (Degradation ≤ 30%) |  | 
COc1cccc(F)c1C1=NCc2cnc(Nc3ccc(C(=O)NCCN4CCN(c5ccc(N6CCC(=O)NC6=O)cn5)C5(CC5)C4)cc3)nc2-c2ccc(Cl)cc21 [Compound A67] | > 6.00 | + (Degradation ≤ 30%) | + (Degradation ≤ 30%) |  | 
COc1cccc(F)c1C1=NCc2cnc(Nc3ccc(C(=O)NCCN4CCN(c5ccc(N6CCC(=O)NC6=O)cn5)CC45CC5)cc3)nc2-c2ccc(Cl)cc21 [Compound A69] | > 6.00 | +++ (Degradation > 70%) | +++ (Degradation > 70%) |  | 
O=C1CCN(c2ccc(N3CC(CN4CC(NC(=O)c5ccc(Nc6ncc7c(n6)-c6ccc(Cl)cc6C(c6c(F)cccc6F)=NC7)cc5)C4)C3)cc2)C(=O)N1 [Compound A70] | > 6.00 | +++ (Degradation > 70%) | +++ (Degradation > 70%) |  | 
COc1cccc(F)c1C1=NCc2cnc(Nc3ccc(C(=O)NC4CN(CC5CN(c6ccc(N7CCC(=O)NC7=O)cc6)C5)C4)cc3)nc2-c2ccc(Cl)cc21 [Compound A71] | > 6.00 | +++ (Degradation > 70%) | +++ (Degradation > 70%) |  | 
O=C1CCN(c2cccc(N3CC(CN4CC(NC(=O)c5ccc(Nc6ncc7c(n6)-c6ccc(Cl)cc6C(c6c(F)cccc6F)=NC7)cc5)C4)C3)c2)C(=O)N1 [Compound A72] | > 6.00 | +++ (Degradation > 70%) | +++ (Degradation > 70%) |  | 
COc1cccc(F)c1C1=NCc2cnc(Nc3ccc(C(=O)NC4CN(CC5CN(c6cccc(N7CCC(=O)NC7=O)c6)C5)C4)cc3)nc2-c2ccc(Cl)cc21 [Compound A73] | > 6.00 | +++ (Degradation > 70%) | +++ (Degradation > 70%) |  | 
O=C1CCN(c2cccc(N3CC(N4CC(NC(=O)c5ccc(Nc6ncc7c(n6)-c6ccc(Cl)cc6C(c6c(F)cccc6F)=NC7)cc5)C4)C3)c2)C(=O)N1 [Compound A74] | > 6.00 | ++ (30% < Degradation ≤ 70%) | ++ (30% < Degradation ≤ 70%) |  | 
O=C1CCC(N2CCN(C3CN(CCNC(=O)c4ccc(Nc5ncc6c(n5)-c5ccc(Cl)cc5C(c5c(F)cccc5F)=NC6)cc4)C3)CC2=O)C(=O)N1 (stereo not drawn) [Compound A75] | 5.00 to 6.00 |  |  | ++ (key: +: Degradation ≤ 30%; ++: 30% < Degradation ≤ 70%; +++: Degradation > 70%) | ++ (key: +: Degradation ≤ 30%; ++: 30% < Degradation ≤ 70%; +++: Degradation > 70%)
COc1cccc(F)c1C1=NCc2cnc(Nc3ccc(C(=O)NC45CC(C#Cc6cccc(N7CCC(=O)NC7=O)c6)(C4)C5)cc3)nc2-c2ccc(Cl)cc21 [Compound A77] | 5.00 to 6.00 |  |  | ++ (key: +: Degradation ≤ 30%; ++: 30% < Degradation ≤ 70%; +++: Degradation > 70%) | ++ (key: +: Degradation ≤ 30%; ++: 30% < Degradation ≤ 70%; +++: Degradation > 70%)
COc1cc(Nc2ncc3c(n2)-c2ccc(Cl)cc2C(c2c(F)cccc2OC)=NC3)ccc1C(=O)NC1CC2(CCN(c3ncc(N4CCC(=O)NC4=O)s3)CC2)C1 [Compound A80] | > 6.00 | ++ (30% < Degradation ≤ 70%) | +++ (Degradation > 70%) |  | 
O=C1CCN(c2cnc(N3CCC4(CC3)CC(NC(=O)c3ccc(Nc5ncc6c(n5)-c5ccc(Cl)cc5C(c5c(F)cccc5F)=NC6)cc3)C4)s2)C(=O)N1 [Compound A81] | > 6.00 | +++ (Degradation > 70%) | +++ (Degradation > 70%) |  | 
COc1cc(Nc2ncc3c(n2)-c2ccc(Cl)cc2C(c2c(F)cccc2OC)=NC3)ccc1C(=O)O [alisertib, reference compound] | > 6.00 | + (Degradation ≤ 30%) | + (Degradation ≤ 30%) |  | 

From patent publication EP4818168A1, “FUSED RING COMPOUND, PHARMACEUTICAL COMPOSITION THEREOF AND USE THEREOF” (priority 2023, dated 2025)
